What was measured:
human OX2 receptor = molecular target: T1, human OX2 receptor (Homo sapiens, UniProt O43614); assay: Measurement of orexin type 2 receptor agonist activity (calcium fluorescence, Fluo-4, FDSS); assay type: cell-based; conditions: 3 uM test compound; CHO cells expressing human OX2 receptor; DMSO = 0%, 10 nM orexin A (human) = 100%
T1 construct: expressed in transfected cells
T1 sequence (O43614 1-444): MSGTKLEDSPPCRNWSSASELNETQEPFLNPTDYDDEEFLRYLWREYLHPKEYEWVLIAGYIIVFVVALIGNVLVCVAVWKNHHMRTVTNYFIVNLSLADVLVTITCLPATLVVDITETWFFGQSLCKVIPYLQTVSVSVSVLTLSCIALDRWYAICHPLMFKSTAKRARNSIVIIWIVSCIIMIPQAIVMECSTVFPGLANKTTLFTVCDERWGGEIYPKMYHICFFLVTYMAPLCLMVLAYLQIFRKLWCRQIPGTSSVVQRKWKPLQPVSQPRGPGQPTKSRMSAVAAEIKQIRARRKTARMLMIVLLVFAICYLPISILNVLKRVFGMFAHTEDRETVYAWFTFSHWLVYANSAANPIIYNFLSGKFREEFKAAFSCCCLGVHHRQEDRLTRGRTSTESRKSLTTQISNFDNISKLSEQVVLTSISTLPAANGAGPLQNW
In short: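 Agonist activity (%) was normalised to the response to 10 nM final human orexin A (100%) and to the DMSO vehicle (0%). The response was measured as the Fluo-4 calcium signal, read kinetically over 1 min 40 s after compound addition to Fluo-4/probenecid-loaded stable CHO-K1 clones expressing human OX2 (aa 1-444).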

cynomolgus monkeys = assay: Evaluation of wake-promoting effects in cynomolgus monkeys (EEG, EMG, locomotor activity); assay type: in vivo, cynomolgus monkey; conditions: Macaca fascicularis, po, p.o., at zeitgeber time 12, 4 hours after administration, male cynomolgus monkeys, read-out: Wakefulness time (% of vehicle treatment) (Mean, n = 2-4)
Protocol: The wake-promoting effects were evaluated by measuring the electroencephalogram (EEG), electromyogram (EMG) and locomotor activity in cynomolgus monkeys. Under isoflurane anesthesia (0.5-5%, Pfizer Japan Inc., Tokyo, Japan), male cynomolgus monkeys (2-3 years old, Hamri Co., Ltd., Ibaraki, Japan) were surgically implanted with radio-telemetry transmitters (L03-F3, Data Sciences International Inc., MN, USA). The two EEG electrodes were stereotaxically positioned at the parietal area and secured to the cranium with stainless-steel screws in contact with the dura. Bilateral EMG electrodes were implanted into the back cervical muscles. After at least a 1-month recovery period in home cages, the monkeys were habituated to the recording chamber (an acrylic cage 60W×55D×75H (cm)) located in a soundproof and electrically shielded room by the time animals sleep sufficiently in the experimental room. Cortical EEG, EMG and locomotor activity were recorded using the telemetry system (PhysioTel Digital telemetry platform, Data Sciences International Inc.). The signals were semi-automatically scored in 20-second epochs by a sleep scoring system (SleepSign, Kissei Comtec Co., Ltd., Nagano, Japan).
Test compound (1 or 3 mg/kg) suspended in 0.5% methylcellulose aqueous solution or vehicle (i.e., 0.5% methylcellulose aqueous solution) was administered orally (p.o.) to monkeys at zeitgeber time 12 in a volume of 5 mL/kg body weight with a pretest-posttest design (n=2-4), and then EEG, EMG and locomotor activity were recorded for 4 hours after administration. The time spent in wakefulness for 4 hours after administration (% of vehicle treatment) was calculated by using SleepSign.

SMILES	OX2R agonist activity (3 uM, %) (human OX2 receptor) [%]	response vs control in vivo at 3 mg/kg (cynomolgus monkeys; 3 mg/kg) [%]	response vs control in vivo at 1 mg/kg (cynomolgus monkeys) [%]
CCS(=O)(=O)N[C@H]1C[C@H]2CN(c3noc4cccc(-c5c(F)cccc5F)c34)C(=O)N2C1 [Example 1, N-{(6S,7aS)-2-[4-(2,6-Difluorophenyl)-1,2-benzoxazol-3-yl]-3-oxohexahydro-1H-pyrrolo[1,2-c]imidazol-6-yl}ethanesulfonamide]	104	383	
CS(=O)(=O)N[C@@H]1Cn2c(cn(-c3noc4cccc(-c5c(F)cc(F)cc5F)c34)c2=O)C1(F)F [Example 16, N-{(6R)-7,7-Difluoro-3-oxo-2-[4-(2,4,6-trifluorophenyl)-1,2-benzoxazol-3-yl]-2,5,6,7-tetrahydro-3H-pyrrolo[1,2-c]imidazol-6-yl}methanesulfonamide]	107		546
CCS(=O)(=O)N[C@@H]1CN2C(=O)N(c3noc4cccc(-c5c(F)cc(F)cc5F)c34)C[C@@H]2C1(F)F [Example 24, N-{(6R,7aR)-7,7-Difluoro-3-oxo-2-[4-(2,4,6-trifluorophenyl)-1,2-benzoxazol-3-yl]hexahydro-1H-pyrrolo[1,2-c]imidazol-6-yl}ethanesulfonamide]	104		393
CCS(=O)(=O)N[C@H]1C[C@H]2CN(c3noc4cc(Cl)cc(-c5c(F)cccc5F)c34)C(=O)N2C1 [Example 50, N-{(6S,7aS)-2-[6-Chloro-4-(2,6-difluorophenyl)-1,2-benzoxazol-3-yl]-3-oxohexahydro-1H-pyrrolo[1,2-c]imidazol-6-yl}ethanesulfonamide]	103		176
CS(=O)(=O)N[C@@H]1CN2C(=O)N(c3noc4cccc(-c5c(F)cc(F)cc5F)c34)C[C@@H]2C1(F)F [Example 71, N-{(6R,7aR)-7,7-Difluoro-3-oxo-2-[4-(2,4,6-trifluorophenyl)-1,2-benzoxazol-3-yl]hexahydro-1H-pyrrolo[1,2-c]imidazol-6-yl}methanesulfonamide]	97		703
CS(=O)(=O)N[C@@H]1Cn2c(cn(-c3noc4ccc(F)c(-c5c(F)cc(F)cc5F)c34)c2=O)C1(F)F [Example 77, N-{(6R)-7,7-Difluoro-2-[5-fluoro-4-(2,4,6-trifluorophenyl)-1,2-benzoxazol-3-yl]-3-oxo-2,5,6,7-tetrahydro-3H-pyrrolo[1,2-c]imidazol-6-yl}methanesulfonamide]	100		645
CS(=O)(=O)N[C@@H]1Cn2c(cn(-c3noc4cc(F)c(F)c(-c5c(F)cccc5F)c34)c2=O)C1(F)F [Example 142, N-{(6R)-2-[4-(2,6-difluorophenyl)-5,6-difluoro-1,2-benzoxazol-3-yl]-7,7-difluoro-3-oxo-2,5,6,7-tetrahydro-3H-pyrrolo[1,2-c]imidazol-6-yl}methanesulfonamide]	99		690
CS(=O)(=O)N[C@@H]1CN2C(=O)N(c3noc4cc(F)cc(-c5c(F)cc(F)cc5F)c34)C[C@@H]2C1(F)F [Example 149, N-{(6R,7aR)-7,7-Difluoro-2-[6-fluoro-4-(2,4,6-trifluorophenyl)-1,2-benzoxazol-3-yl]-3-oxohexahydro-1H-pyrrolo[1,2-c]imidazol-6-yl}methanesulfonamide]	95		731
CS(=O)(=O)N[C@@H]1CN2C(=O)N(c3noc4cccc(-c5c(F)cc(F)cc5F)c34)CC[C@@H]2C1(F)F [Example 213, N-{(4aR,6R)-5,5-Difluoro-1-oxo-2-[4-(2,4,6-trifluorophenyl)-1,2-benzoxazol-3-yl]octahydropyrrolo[1,2-c]pyrimidin-6-yl}methanesulfonamide]	104		447
CS(=O)(=O)N[C@@H]1CN2C(=O)N(c3noc4cc(F)c(F)c(-c5c(F)cc(F)cc5F)c34)CC[C@@H]2C1(F)F [Example 243, N-{(4aR,6R)-2-[5,6-difluoro-4-(2,4,6-trifluorophenyl)-1,2-benzoxazol-3-yl]-5,5-difluoro-1-oxooctahydropyrrolo[1,2-c]pyrimidin-6-yl}methanesulfonamide]	109		618
CCS(=O)(=O)N[C@@H]1CN2C(=O)N(c3noc4cccc(-c5nccs5)c34)CC[C@@H]2C1(F)F [Example 330, N-{(4aR,6R)-5,5-difluoro-1-oxo-2-[4-(1,3-thiazol-2-yl)-1,2-benzoxazol-3-yl]octahydropyrrolo[1,2-c]pyrimidin-6-yl}ethanesulfonamide]	109		
CCS(=O)(=O)N[C@@H]1CN2C(=O)N(c3noc4cccc(C5CCC5)c34)CC[C@@H]2C1(F)F [Example 331, N-[(4aR,6R)-2-(4-cyclobutyl-1,2-benzoxazol-3-yl)-5,5-difluoro-1-oxooctahydropyrrolo[1,2-c]pyrimidin-6-yl]ethanesulfonamide]	45		
CCS(=O)(=O)N[C@@H]1CN2C(=O)N(c3noc4cccc(N5CCCCC5)c34)CC[C@@H]2C1(F)F [Example 333, N-{(4aR,6R)-5,5-difluoro-1-oxo-2-[4-(piperidin-1-yl)-1,2-benzoxazol-3-yl]octahydropyrrolo[1,2-c]pyrimidin-6-yl}ethanesulfonamide]	68		
CCS(=O)(=O)N[C@@H]1CN2C(=O)N(c3noc4cccc(-c5ncc(F)cc5C)c34)CC[C@@H]2C1(F)F [Example 335, N-{(4aR,6R)-5,5-difluoro-2-[4-(5-fluoro-3-methylpyridin-2-yl)-1,2-benzoxazol-3-yl]-1-oxooctahydropyrrolo[1,2-c]pyrimidin-6-yl}ethanesulfonamide]	101		

Second part, led by results:

OX2R agonist activity (3 uM, %) (human OX2 receptor) [%]	SMILES	response vs control in vivo at 3 mg/kg (cynomolgus monkeys; 3 mg/kg) [%]	response vs control in vivo at 1 mg/kg (cynomolgus monkeys) [%]
99	CCS(=O)(=O)N[C@@H]1CN2C(=O)N(c3noc4cccc(-c5ccsc5)c34)CC[C@@H]2C1(F)F [Example 326, N-{(4aR,6R)-5,5-difluoro-1-oxo-2-[4-(thiophen-3-yl)-1,2-benzoxazol-3-yl]octahydropyrrolo[1,2-c]pyrimidin-6-yl}ethanesulfonamide]		
118	CCS(=O)(=O)N[C@@H]1CN2C(=O)N(c3noc4cccc(-c5ccccc5Cl)c34)CC[C@@H]2C1(F)F [Example 327, N-{(4aR,6R)-2-[4-(2-chlorophenyl)-1,2-benzoxazol-3-yl]-5,5-difluoro-1-oxooctahydropyrrolo[1,2-c]pyrimidin-6-yl}ethanesulfonamide]		
103	CCS(=O)(=O)N[C@@H]1CN2C(=O)N(c3noc4cccc(-c5cccs5)c34)CC[C@@H]2C1(F)F [Example 328, N-{(4aR,6R)-5,5-difluoro-1-oxo-2-[4-(thiophen-2-yl)-1,2-benzoxazol-3-yl]octahydropyrrolo[1,2-c]pyrimidin-6-yl}ethanesulfonamide]		
101	CCS(=O)(=O)N[C@@H]1CN2C(=O)N(c3noc4cccc(-c5ccc(F)cc5Cl)c34)CC[C@@H]2C1(F)F [Example 329, N-{(4aR,6R)-2-[4-(2-chloro-4-fluorophenyl)-1,2-benzoxazol-3-yl]-5,5-difluoro-1-oxooctahydropyrrolo[1,2-c]pyrimidin-6-yl}ethanesulfonamide]		
106	CCS(=O)(=O)N[C@@H]1CN2C(=O)N(c3noc4cccc(-c5sccc5C)c34)CC[C@@H]2C1(F)F [Example 332, N-{(4aR,6R)-5,5-difluoro-2-[4-(3-methylthiophen-2-yl)-1,2-benzoxazol-3-yl]-1-oxooctahydropyrrolo[1,2-c]pyrimidin-6-yl}ethanesulfonamide]		
111	CCS(=O)(=O)N[C@@H]1CN2C(=O)N(c3noc4cccc(-c5ccccc5F)c34)CC[C@@H]2C1(F)F [Example 334, N-{(4aR,6R)-5,5-difluoro-2-[4-(2-fluorophenyl)-1,2-benzoxazol-3-yl]-1-oxooctahydropyrrolo[1,2-c]pyrimidin-6-yl}ethanesulfonamide]		

From patent US11987586B1 (TAKEDA PHARMACEUTICAL COMPANY LIMITED, priority 2022, dated 2024)
